Results from patent US20250177359A1, “COMPOUNDS FOR USE IN THE TREATMENT OF CANCER AND INFLAMMATORY CONDITIONS” (priority 2022, published 2025).

Target: T1, PARP10 (Homo sapiens, UniProt Q53GL7)
T1 construct: made in house
T1 sequence (Q53GL7 1-1025): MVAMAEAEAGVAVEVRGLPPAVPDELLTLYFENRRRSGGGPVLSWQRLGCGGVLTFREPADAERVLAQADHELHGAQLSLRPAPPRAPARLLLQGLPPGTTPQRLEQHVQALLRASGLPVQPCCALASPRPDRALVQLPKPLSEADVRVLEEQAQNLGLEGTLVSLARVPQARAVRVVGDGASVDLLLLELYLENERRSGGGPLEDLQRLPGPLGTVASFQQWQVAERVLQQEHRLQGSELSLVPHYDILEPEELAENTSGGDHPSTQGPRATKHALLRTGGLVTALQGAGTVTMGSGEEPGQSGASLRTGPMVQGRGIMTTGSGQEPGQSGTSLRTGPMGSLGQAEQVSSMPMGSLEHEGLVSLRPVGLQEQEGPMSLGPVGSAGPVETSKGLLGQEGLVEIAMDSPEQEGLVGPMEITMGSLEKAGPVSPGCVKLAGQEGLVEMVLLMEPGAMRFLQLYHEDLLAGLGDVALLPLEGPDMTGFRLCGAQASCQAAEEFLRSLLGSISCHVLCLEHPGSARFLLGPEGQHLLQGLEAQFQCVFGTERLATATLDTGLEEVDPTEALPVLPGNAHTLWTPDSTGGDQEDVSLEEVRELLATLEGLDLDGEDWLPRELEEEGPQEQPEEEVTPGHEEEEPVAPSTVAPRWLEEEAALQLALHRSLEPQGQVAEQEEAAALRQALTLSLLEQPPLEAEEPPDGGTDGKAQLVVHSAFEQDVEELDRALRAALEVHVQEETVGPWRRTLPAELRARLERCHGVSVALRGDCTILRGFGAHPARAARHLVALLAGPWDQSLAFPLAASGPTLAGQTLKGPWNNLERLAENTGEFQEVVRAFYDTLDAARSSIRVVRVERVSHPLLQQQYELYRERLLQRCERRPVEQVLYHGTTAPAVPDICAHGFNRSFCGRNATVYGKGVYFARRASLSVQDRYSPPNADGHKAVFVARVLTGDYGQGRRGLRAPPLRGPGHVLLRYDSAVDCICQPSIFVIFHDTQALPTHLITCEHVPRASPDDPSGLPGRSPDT
Assay: Activity assay measuring NAD+ consumption, PARP10 (Tables 1-3)
Assay type: biochemical
Settings: PARP10 IC50, Tables 1-3 assay

In the case of Nc1nnc2sc3cc(O)ccc3n12 [Compound 109, 3-Amino[1,2,4]triazolo[3,4-b][1,3]benzothiazol-7-ol], the IC50 is reported as 0.22 µM.
